Measured values published in ChEMBL document CHEMBL6071165, “Design, synthesis and biological evaluation of plant-derived miliusol derivatives achieve TNBC profound regression in vivo” (Eur J Med Chem, 2024).
Active and inactive are the calls of the source. No cut-off for these calls is given here.

Key:
[1] = tested on: BT-549; assay: Antiproliferative activity against human BT-549 cells xenografted in female BALB/c mouse model assessed as fold change in cleavage of caspase-3 level at 20 mg/kg administered subcutaneously incubated for 24 hrs by Western blot analysis (reference value: 1.00%); format: functional; conditions: route sc
[2] = tested on: BT-549; assay: Antiproliferative activity against human BT-549 cells xenografted in female BALB/c mouse model assessed as fold change in upregulation of BAX protein level at 20 mg/kg administered subcutaneously incubated for 24 hrs by Western blot analysis (reference value: 1.00%); format: functional; conditions: route sc
[3] = tested on: MDA-MB-231; assay: Induction of apoptosis in human MDA-MB-231 cells assessed as upregulation of Bax expression at 0.5 to 2 uM incubated for 24 hrs by Western blot analysis; format: functional, cell-based; conditions: dose 0.5-2 µM
[4] = tested on: BT-549; assay: Inhibition of glycolysis in human BT-549 cells assessed as reduction in glucose uptake at 0.5 to 2 uM incubated for 24 hrs followed by 2-NBDG staining based flow cytometric analysis; format: functional, cell-based; conditions: dose 0.5-2 µM
[5] = tested on: BT-549; assay: Induction of apoptosis in human BT-549 cells assessed as upregulation of cleavage of caspase-8 expression at 0.5 to 2 uM incubated for 24 hrs by Western blot analysis; format: functional, cell-based; conditions: dose 0.5-2 µM
[6] = tested on: BT-549; assay: Induction of apoptosis in human BT-549 cells assessed as necrotic cells at 2 uM incubated for 24 hrs by Annexin V-PI staining based flow cytometric analysis (reference value: 3.32%); format: functional
[7] = tested on: MDA-MB-231; assay: Induction of apoptosis in human MDA-MB-231 cells assessed as necrotic cells at 0.5 uM incubated for 24 hrs by Annexin V-PI staining based flow cytometric analysis (reference value: 1.29%); format: functional
[8] = tested on: MDA-MB-231; assay: Downregulation of LDHA expression in human MDA-MB-231 cells at 1 uM incubated for 24 hrs by DAPI staining based immunofluorescence analysis; format: functional, cell-based
[9] = tested on: MDA-MB-231; assay: Antimetastatic activity against human MDA-MB-231-Luc cells xenografted in female BALB/C mouse assessed as reduction in metastasis speed at 20 mg/kg administered subcutaneously and measured for 16 days; format: functional, organism-based; conditions: route sc, time 16.0 day
[10] = tested on: MDA-MB-231; assay: Inhibition of DNA replication in human MDA-MB-231 cells assessed as reduction in EDU fluorescence intensity by EDU staining based fluorescence microscopic analysis; format: functional, cell-based; conditions: dose 0.5-2 µM
[11] = tested on: MDA-MB-231; assay: Induction of ER stress in human MDA-MB-231 cells assessed as activation of BIP protein level incubated for 24 hrs by Western blot analysis; format: functional, cell-based; conditions: dose 0.5-2 µM
[12] = tested on: BT-549; assay: Antiproliferative activity against human BT-549 cells xenografted in female BALB/c mouse model assessed as inhibition of Ki-67 expression at 5 to 20 mg/kg administered subcutaneously by immunohistochemical staining based microscopic analysis; format: functional, organism-based; conditions: dose 5-20 mg/kg, route sc
[13] = tested on: BT-549; assay: Inhibition of cell migration in human BT-549 cells assessed as decrease in SNAIL level at 1 uM incubated for 24 hrs by DAPI staining based immunofluorescence analysis; format: functional
[14] = Toxicity in female BALB/c mouse xenografted with human BT-549 cells assessed as effect on pathological changes in lung at 5 to 20 mg/kg, sc by H and E staining based analysis; format: organism-based; conditions: in vivo, dose 5-20 mg/kg
[15] = tested on: MDA-MB-231; assay: Induction of apoptosis in human MDA-MB-231 cells assessed as necrotic cells at 1 uM incubated for 24 hrs by Annexin V-PI staining based flow cytometric analysis (reference value: 1.29%); format: functional
[16] = tested on: BT-549; assay: Induction of apoptosis in human BT-549 cells assessed as viable cells at 0.5 uM incubated for 24 hrs by Annexin V-PI staining based flow cytometric analysis (reference value: 93.0%); format: functional; conditions: read-out: Activity
[17] = tested on: Mitochondrial membrane; assay: Disruption of mitochondrial potential loss in human BT-549 cells assessed as decrease in JC-1 aggregates at 1 uM incubated for 24 hrs by JC-1 staining based flow cytometric analysis (Rvb =98.7%); format: cell membranes; set-up: scale not given: the % may be the effect or the level left
[18] = tested on: BT-549; assay: Inhibition of cell migration in human BT-549 cells assessed as reduction in wound healing ability at 0 to 2 uM incubated for 48 hrs by Wound healing assay; format: functional, cell-based; conditions: dose 0-2 µM
[19] = tested on: MDA-MB-231; assay: Inhibition of cell migration in human MDA-MB-231 cells assessed as increase in E-cadherin level incubated for 24 hrs by Western blot analysis; format: functional, cell-based; conditions: dose 0.5-2 µM
[20] = tested on: BT-549; assay: Induction of apoptosis in human BT-549 cells assessed as viable cells at 2 uM incubated for 24 hrs by Annexin V-PI staining based flow cytometric analysis (reference value: 93.0%); format: functional; conditions: read-out: Activity
[21] = tested on: MDA-MB-231; assay: Antiproliferative activity against human MDA-MB-231 cells xenografted in female BALB/c mouse model assessed as inhibition of Ki-67 expression at 5 to 20 mg/kg administered subcutaneously by immunohistochemical staining based microscopic analysis; format: functional, organism-based; conditions: dose 5-20 mg/kg, route sc
[22] = Toxicity in female BALB/c mouse xenografted with human BT-549 cells assessed as effect on body weight at 5 to 20 mg/kg, sc and measured daily; format: organism-based; conditions: in vivo, dose 5-20 mg/kg
[23] = tested on: BT-549; assay: Antiproliferative activity against human BT-549 cells xenografted in female BALB/c mouse model assessed as increase in E-cadherin level at 5 to 20 mg/kg administered subcutaneously by immunohistochemical staining based microscopic analysis; format: functional, organism-based; conditions: dose 5-20 mg/kg, route sc
[24] = tested on: BT-549; assay: Induction of apoptosis in human BT-549 cells assessed as necrotic cells at 1 uM incubated for 24 hrs by Annexin V-PI staining based flow cytometric analysis (reference value: 3.32%); format: functional
[25] = tested on: MDA-MB-231; assay: Antiproliferative activity against human MDA-MB-231 cells xenografted in female BALB/c mouse model assessed as fold change in upregulation of BAX protein level at 10 mg/kg administered subcutaneously incubated for 24 hrs by Western blot analysis (reference value: 1.00%); format: functional; conditions: route sc
[26] = tested on: MDA-MB-231; assay: Antiproliferative activity against human MDA-MB-231 cells xenografted in female BALB/c mouse model assessed as fold change in downregulation of MMP-2 protein level at 20 mg/kg administered subcutaneously incubated for 24 hrs by Western blot analysis (reference value: 1.00%); format: functional; conditions: route sc
[27] = tested on: BT-549; assay: Antitumor activity against human BT-549 cells xenografted in female BALB/c mouse model assessed as reduction in tumor volume administered subcutaneously and measured every day; format: functional, cell-based; conditions: dose 5-20 mg/kg, route sc
[28] = tested on: BT-549; assay: Inhibition of colony formation in human BT-549 cells incubated for 7 days by Crystal violet staining based analysis; format: functional, cell-based; conditions: dose 0.5-2 µM, time 7.0 day
[29] = tested on: MDA-MB-231; assay: Induction of apoptosis in human MDA-MB-231 cells assessed as early apoptotic cells at 0.5 uM incubated for 24 hrs by Annexin V-PI staining based flow cytometric analysis (reference value: 0.42%); format: functional
[30] = tested on: BT-549; assay: Antiproliferative activity against human BT-549 cells xenografted in female BALB/c mouse model assessed as fold change in downregulation of MMP-2 protein level at 5 mg/kg administered subcutaneously incubated for 24 hrs by Western blot analysis (reference value: 1.00%); format: functional; conditions: route sc
[31] = tested on: BT-549; assay: Inhibition of cell proliferation in human BT-549 cells assessed as reduction in Ki-67 expression at 0.5 to 2 uM incubated for 24 hrs by DAPI staining based immunofluorescence analysis; format: functional; conditions: dose 0.5-2 µM
[32] = tested on: BT-549; assay: Inhibition of cell migration in human BT-549 cells assessed as increase in E-cadherin level by incubated for 24 hrs by Western blot analysis; format: functional, cell-based; conditions: dose 0.5-2 µM
[33] = tested on: MDA-MB-231; assay: Induction of apoptosis in human MDA-MB-231 cells assessed as viable cells at 0.5 uM incubated for 24 hrs by Annexin V-PI staining based flow cytometric analysis (reference value: 96.5%); format: functional; conditions: read-out: Activity

In the case of `CC(C)=CCC/C(C)=C/[C@H]1OC(=O)CC12C[C@H](OC(=O)Cc1ccc(NC(=O)/C=C/c3ccccc3)cc1)C=CC2=O` (stereo partly drawn), the “fold change (FC)” value [1] is reported as 1.74, the “fold change (FC)” value [2] is reported as 2.21 and the Activity [3] is reported as “Active”. The inhibition [4] was “Active”, the Activity [5] was “Active” and the Activity [6] was 4.02%. The Activity [7] was 12.7%, the Activity [8] was “Active” and the Activity [9] was “Active”. The inhibition [10] was “Dose-Dependent Effect”, the Activity [11] was “Dose-Dependent Effect” and the Activity [12] was “Active”. The inhibition [13] was “Active”, the Activity [14] was “Non-Toxic” and the Activity [15] was 15.9%. The viability at 0.5 µM [16] was 91.7%, the Activity [17] was 43.2% and the inhibition [18] was “Active”. The inhibition [19] was “Dose-Dependent Effect”, the viability at 2 µM [20] was 34.8% and the Activity [21] was “Active”. The Activity [22] was “Non-Toxic”, the Activity [23] was “Active” and the Activity [24] was 5.44%. For the same compound, the “fold change (FC)” value [25] was 1.13, the “fold change (FC)” value [26] was 0.26 and the Activity [27] was “Dose-Dependent Effect”. For the same compound, the inhibition [28] was “Dose-Dependent Effect”, the Activity [29] was 0.83% and the “fold change (FC)” value [30] was 0.99. The inhibition [31] was “Active”, the inhibition [32] was “Dose-Dependent Effect” and the viability at 0.5 µM [33] was 70.1%.
